Reference: ChEMBL document CHEMBL4715789, “Identification of a Potential Antimalarial Drug Candidate from a Series of 2-Aminopyrazines by Optimization of Aqueous Solubility and Potency across the Parasite Life Cycle” (J Med Chem, 2016)
Converted amounts (≈) assume the structure as drawn.

Experiments:
[1] = Metabolic stability in rat liver microsomes assessed as compound remaining at 0.1 uM measured after 30 mins in presence of cofactor NADPH by LC-MS/MS analysis; assay type: ADME, Microsome; conditions: read-out: Stabilty
[2] = Volume of distribution in Sprague-dawley rat at 3 mg/kg, iv by LC-MS/MS analysis; assay type: ADME, organism-based; conditions: in vivo
Plasmodium falciparum [3] = test: Antimalarial activity against Plasmodium falciparum 3D70087/N9 infected in NOD-SCID IL2Rgamma null mouse assessed as blood AUC level require to show 90% reduction in parasitemia administered orally on day 3 to 6 post-infection and measured day 7 post infection; assay type: functional, organism-based; conditions: time 5.0 day
Plasmodium falciparum [4] = test: Antiplasmodial activity against early stage (II/III) Plasmodium falciparum NF54 gametocytes incubated for 48 hrs by luciferase reporter gene assay; assay type: functional, organism-based; conditions: NF54, 48 h
hERG (KCNH2) = test: Selectivity ratio of IC50 for inhibition of human ERG by IonWorks patch clamp electrophysiology method to IC50 for antiplasmodial activity against multidrug-sensitive Plasmodium falciparum NF54 infected in human erythrocytes; assay type: toxicity, cell-based; conditions: read-out: Ratio IC50
[5] = Selectivity index, ratio of IC50 for cytotoxicity against CHO cells by MTT assay to IC50 for antiplasmodial activity against multidrug-sensitive Plasmodium falciparum NF54 infected in human erythrocytes; assay type: toxicity, cell-based; conditions: Chinese hamster, read-out: Ratio IC50
Plasmodium berghei [6] = test: Antiplasmodial activity against Plasmodium berghei ANKA infected in NMRI mouse model assessed as mean survival days at 3 mg/kg, po qd for 4 consecutive day; assay type: functional; conditions: time 4 day
[7] = target: Voltage-gated inwardly rectifying potassium channel KCNH2 (Homo sapiens, UniProt Q12809); test: Inhibition of human ERG by IonWorks patch clamp electrophysiology method
[8] = Half-life in Sprague-dawley rat at 10 mg/kg, po by LC-MS/MS analysis; assay type: ADME, organism-based; conditions: in vivo
[9] = Aqueous solubility of compound in pH 2 0.01M HCl incubated for 2 hrs under shaking condition by shake-flask method based HPLC-DAD analysis; assay type: physicochemical
[10] = Metabolic stability in mouse liver microsomes assessed as compound remaining at 0.1 uM measured after 30 mins in presence of cofactor NADPH by LC-MS/MS analysis; assay type: ADME, Microsome; conditions: read-out: Stabilty
[11] = Aqueous solubility of compound in pH 6.5 PBS incubated for 2 hrs under shaking condition by shake-flask method based HPLC-DAD analysis; assay type: physicochemical
Plasmodium berghei [12] = test: Antiplasmodial activity against luciferase expressing Plasmodium berghei sporozoites infected in human HepG2 cells preincubated with compound for 18 hrs followed by plasmodium infection measured after 48 hrs by bioluminescence assay; assay type: functional, organism-based
Plasmodium falciparum [13] = test: Antiplasmodial activity against late stage (IV/V) Plasmodium falciparum NF54 gametocytes incubated for 48 hrs by luciferase reporter gene assay; assay type: functional, organism-based; conditions: NF54, 48 h
Plasmodium berghei [14] = test: Antiplasmodial activity against Plasmodium berghei ANKA infected in NMRI mouse model assessed as mean survival days at 10 mg/kg, po qd for 4 consecutive day; assay type: functional; conditions: time 4 day
[15] = Oral bioavailability in Sprague-dawley rat at 10 mg/kg by LC-MS/MS analysis; assay type: ADME, organism-based; conditions: in vivo
Plasmodium falciparum [16] = test: microbe, parasite or virus in culture; conditions: K1, Erythrocyte
Description: Antiplasmodial activity against multidrug-resistant Plasmodium falciparum K1 infected in erythrocytes assessed as reduction in [3H]hypoxanthine incorporation preincubated for 48 hrs followed by [3H]hypoxanthine addition and measured after 24 hrs by liquid scintillation counting method

Plasmodium falciparum [17] = test: Antiplasmodial activity against Plasmodium falciparum 3D70087/N9 infected in NOD-SCID IL2Rgamma null mouse assessed as reduction in parasitemia administered orally on day 3 to 6 post-infection and measured day 7 post infection by TER-119-PE and […] dye based flow cytometry; assay type: functional; conditions: 3D70087/N9, po, 120 h, time 5 day
[18] = Metabolic stability in human liver microsomes assessed as compound remaining at 0.1 uM measured after 30 mins in presence of cofactor NADPH by LC-MS/MS analysis; assay type: ADME, Microsome; conditions: read-out: Stabilty
[19] = Clearance in Sprague-dawley rat at 3 mg/kg, iv by LC-MS/MS analysis; assay type: ADME, organism-based; conditions: in vivo
[20] = Half-life in Sprague-dawley rat at 3 mg/kg, iv by LC-MS/MS analysis; assay type: ADME, organism-based; conditions: in vivo
Plasmodium falciparum [21] = test: microbe, parasite or virus in culture; conditions: NF54, Erythrocyte
Description: Antiplasmodial activity against multidrug-sensitive Plasmodium falciparum NF54 infected in human erythrocytes assessed as reduction in [3H]hypoxanthine incorporation preincubated for 48 hrs followed by [3H]hypoxanthine addition and measured after 24 hrs by liquid scintillation counting method

Plasmodium berghei [22] = test: Antiplasmodial activity against Plasmodium berghei ANKA infected in NMRI mouse assessed as reduction in parasitemia at 10 mg/kg, po qd for 4 consecutive days measured at day 7 post infection by flow cytometry analysis; assay type: functional; parameters: scale not given: the % may be the effect or the level left; conditions: time 4 day
Plasmodium berghei [23] = test: Antiplasmodial activity against Plasmodium berghei ANKA infected in NMRI mouse model assessed as mean survival days at 30 mg/kg, po qd for 4 consecutive days; assay type: functional; conditions: time 4 day
[24] = Cmax(app) in NMRI mouse plasma infected with Plasmodium berghei ANKA at 3 mg/kg, po qd for 4 consecutive days and measured post last dose; assay type: ADME, organism-based; conditions: time 4 day
[25] = Apparent average plasma concentration in NMRI mouse plasma infected with Plasmodium berghei ANKA at 3 mg/kg, po qd for 4 consecutive days and measured post last dose; assay type: ADME, organism-based; conditions: in vivo, 96 h, time 4 day
Plasmodium berghei [26] = test: Antiplasmodial activity against Plasmodium berghei ANKA infected in NMRI mouse model assessed as reduction in parasitemia administered orally once a day for 4 consecutive days measured at day 7 post infection by flow cytometry analysis; assay type: functional; conditions: po, 96 h, time 4 day
[27] = AUC(app) in NMRI mouse plasma infected with Plasmodium berghei ANKA at 3 mg/kg, po qd for 4 consecutive days and measured post last dose; assay type: ADME, organism-based; conditions: time 4 day
Plasmodium berghei [28] = test: Antiplasmodial activity against Plasmodium berghei ANKA infected in NMRI mouse assessed as reduction in parasitemia at 3 mg/kg, po qd for 4 consecutive days measured at day 7 post infection by flow cytometry analysis; assay type: functional; parameters: scale not given: the % may be the effect or the level left; conditions: time 4 day
[29] = Oral bioavailability in Sprague-dawley rat at 15 mg/kg by LC-MS/MS analysis; assay type: ADME, organism-based; conditions: in vivo
[30] = Half-life in Sprague-dawley rat at 5 mg/kg, iv by LC-MS/MS analysis; assay type: ADME, organism-based; conditions: in vivo
[31] = Clearance in Sprague-dawley rat at 5 mg/kg, iv by LC-MS/MS analysis; assay type: ADME, organism-based; conditions: in vivo
[32] = Half-life in Sprague-dawley rat at 20 mg/kg, po by LC-MS/MS analysis; assay type: ADME, organism-based; conditions: in vivo
[33] = Volume of distribution in Sprague-dawley rat at 5 mg/kg, iv by LC-MS/MS analysis; assay type: ADME, organism-based; conditions: in vivo
[34] = Oral bioavailability in Sprague-dawley rat at 20 mg/kg by LC-MS/MS analysis; assay type: ADME, organism-based; conditions: in vivo

Voltage-gated inwardly rectifying potassium channel KCNH2, sequence (Q12809 whole entry): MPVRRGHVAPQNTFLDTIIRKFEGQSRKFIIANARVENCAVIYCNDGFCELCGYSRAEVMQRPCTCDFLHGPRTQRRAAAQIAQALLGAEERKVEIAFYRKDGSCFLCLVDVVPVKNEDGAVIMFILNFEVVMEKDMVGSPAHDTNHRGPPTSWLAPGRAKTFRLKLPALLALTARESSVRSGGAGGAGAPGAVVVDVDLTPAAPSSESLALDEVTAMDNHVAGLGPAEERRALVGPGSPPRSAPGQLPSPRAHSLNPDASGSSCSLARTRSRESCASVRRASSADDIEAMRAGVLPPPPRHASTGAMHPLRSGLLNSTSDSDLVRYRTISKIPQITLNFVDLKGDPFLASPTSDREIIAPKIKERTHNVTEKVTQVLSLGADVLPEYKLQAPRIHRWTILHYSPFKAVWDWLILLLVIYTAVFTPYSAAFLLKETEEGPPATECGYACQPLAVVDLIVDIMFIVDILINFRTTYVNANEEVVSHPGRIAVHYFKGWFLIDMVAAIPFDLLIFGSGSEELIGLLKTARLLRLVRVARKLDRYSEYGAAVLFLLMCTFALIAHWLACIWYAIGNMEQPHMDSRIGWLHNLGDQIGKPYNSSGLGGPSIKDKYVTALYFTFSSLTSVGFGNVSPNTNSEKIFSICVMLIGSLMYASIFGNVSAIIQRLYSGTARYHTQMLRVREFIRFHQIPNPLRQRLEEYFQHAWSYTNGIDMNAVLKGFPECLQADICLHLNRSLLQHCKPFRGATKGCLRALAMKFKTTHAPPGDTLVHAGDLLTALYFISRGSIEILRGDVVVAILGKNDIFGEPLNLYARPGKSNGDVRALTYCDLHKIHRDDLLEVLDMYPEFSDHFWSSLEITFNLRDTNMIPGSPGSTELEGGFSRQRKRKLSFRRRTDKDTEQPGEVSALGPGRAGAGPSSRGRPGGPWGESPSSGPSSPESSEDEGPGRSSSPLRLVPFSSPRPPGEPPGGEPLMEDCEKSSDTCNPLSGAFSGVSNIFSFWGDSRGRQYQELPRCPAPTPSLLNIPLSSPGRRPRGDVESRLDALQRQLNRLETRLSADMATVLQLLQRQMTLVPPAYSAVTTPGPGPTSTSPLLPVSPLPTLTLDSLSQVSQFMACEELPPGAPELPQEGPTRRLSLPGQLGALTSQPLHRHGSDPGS

Nc1ncc(-c2ccc(C(=O)N3CCC(O)CC3)cc2)nc1-c1ccc(C(F)(F)F)cc1
remaining at 0.5 h, 0.1 µM [1]: > 90% | Vd [2]: 5.1 L/kg | AUC (Plasmodium falciparum [3]): 60 ng·h/mL | IC50 (Plasmodium falciparum [4]): 603 nM | selectivity ratio (hERG (KCNH2)): > 1000 | selectivity ratio [5]: > 1800 | MSD (Plasmodium berghei [6]): 7 days | IC50 [7]: > 33000 nM | half-life [8]: 5.4 h | solubility thermodynamic at 2 h [9]: 119 µM (≈ 52.7 µg/mL) | remaining at 0.5 h, 0.1 µM [10]: > 90% | solubility thermodynamic at 2 h [11]: 19 µM (≈ 8.41 µg/mL) | IC50 (Plasmodium berghei [12]): 4.1 nM | IC50 (Plasmodium falciparum [13]): 179 nM | MSD (Plasmodium berghei [14]): 11 days | bioavailability [15]: 25% | IC50 (Plasmodium falciparum [16]): 5 nM | ED90 (Plasmodium falciparum [17]): 0.11 mg/kg | remaining at 0.5 h, 0.1 µM [18]: > 90% | clearance [19]: 7.1 mL/min/kg | half-life [20]: 8.1 h | IC50 (Plasmodium falciparum [21]): 5.4 nM | Activity (Plasmodium berghei [22]): 99.9%

O[C@@H](c1cc(C(F)(F)F)nc2c(C(F)(F)F)cccc12)[C@H]1CCCCN1 [(S,R)-MEFLOQUINE]
MSD (Plasmodium berghei [23]): 29 days

C[C@H]1[C@H](OC(=O)CCC(=O)O)O[C@@H]2O[C@@]3(C)CC[C@H]4[C@H](C)CC[C@@H]1[C@@]24OO3 [ARTESUNATE]
MSD (Plasmodium berghei [23]): 10 days | IC50 (Plasmodium falciparum [16]): 3 nM | IC50 (Plasmodium falciparum [21]): 4 nM

Nc1ncc(-c2ccc(C(=O)O)cc2)nc1-c1ccc(C(F)(F)F)cc1
remaining at 0.5 h, 0.1 µM [1]: > 90% | AUC (Plasmodium falciparum [3]): 200 ng·h/mL | IC50 (Plasmodium falciparum [4]): 649 nM | selectivity ratio (hERG (KCNH2)): > 1000 | selectivity ratio [5]: > 1800 | MSD (Plasmodium berghei [6]): 14 days | Cmax [24]: 5000 nM | Cave [25]: 3500 nM | ED90 (Plasmodium berghei [26]): 0.56 mg/kg | IC50 [7]: > 33000 nM | solubility thermodynamic at 2 h [9]: < 5 µM | AUC at 96 h [27]: 79.7 µM·h | remaining at 0.5 h, 0.1 µM [10]: > 90% | solubility thermodynamic at 2 h [11]: 95 µM (≈ 34.1 µg/mL) | IC50 (Plasmodium berghei [12]): 51 nM | IC50 (Plasmodium falciparum [13]): 729 nM | MSD (Plasmodium berghei [14]): >30 days | Activity (Plasmodium berghei [28]): 99.9% | IC50 (Plasmodium falciparum [16]): 32 nM | ED90 (Plasmodium falciparum [17]): < 0.1 mg/kg | remaining at 0.5 h, 0.1 µM [18]: > 90% | bioavailability [29]: 94% | IC50 (Plasmodium falciparum [21]): 33 nM | Activity (Plasmodium berghei [22]): 99.9%

Nc1ncc(-c2ccc(C(=O)N3CCNCC3)cc2)nc1-c1ccc(C(F)(F)F)cc1
remaining at 0.5 h, 0.1 µM [1]: > 90% | half-life [30]: 7.8 h | AUC (Plasmodium falciparum [3]): < 65 ng·h/mL | IC50 (Plasmodium falciparum [4]): 134 nM | selectivity ratio (hERG (KCNH2)): 1900 | selectivity ratio [5]: > 1800 | MSD (Plasmodium berghei [6]): 10 days | Cmax [24]: 400 nM | Cave [25]: 200 nM | ED90 (Plasmodium berghei [26]): 1 mg/kg | IC50 [7]: 10000 nM | solubility thermodynamic at 2 h [9]: 192 µM (≈ 82.1 µg/mL) | AUC at 96 h [27]: 5.4 µM·h | clearance [31]: 10.3 mL/min/kg | remaining at 0.5 h, 0.1 µM [10]: > 90% | solubility thermodynamic at 2 h [11]: 158 µM (≈ 67.5 µg/mL) | half-life [32]: 5.3 h | IC50 (Plasmodium berghei [12]): 0.92 nM | IC50 (Plasmodium falciparum [13]): 66 nM | MSD (Plasmodium berghei [14]): >30 days | Activity (Plasmodium berghei [28]): >99.9% | IC50 (Plasmodium falciparum [16]): 5.2 nM | ED90 (Plasmodium falciparum [17]): 0.25 mg/kg | remaining at 0.5 h, 0.1 µM [18]: > 90% | Vd [33]: 5.5 L/kg | IC50 (Plasmodium falciparum [21]): 5.4 nM | Activity (Plasmodium berghei [22]): >99.9% | bioavailability [34]: 98%
